Data on five compounds can be found in patent publication US12110494B2, “Method for biologically producing sugar alcohol from agar” (Korea University Research and Business Foundation, priority 2018, dated 2024).

The target of data set [1] is T1, β-galactosidase expressed by LAC4 (Kluyveromyces lactis, UniProt P00723).
T1 construct: expressed in transfected cells; host or cells: Saccharomyces cerevisiae D452-2-L124 (crude lysate supernatant)
Briefly: AB hydrolysis by LAC4 in coenzyme obtained from lysed cells. The class given is biochemical, K. lactis. As to conditions: substrate 2 g/L. As for the experimental part:
The AB hydrolysis ability of LAC4 was examined for the constructed strain D452-2-L124 and controls D452-2-L12 and parent D452-2. Since a method of verifying AB hydrolysis is to verify the enzymatic reaction in the cell, a protein, that is, a coenzyme, obtained by growth, collection, and lysis of each cell was used to measure the AB hydrolysis ability. More specifically, each strain was allowed to grow in a YP medium, which is a nutrient broth containing 20 g/L of glucose, at 30° C. and centrifuged in the mid-exponential growth phase at 3,000 g for 10 minutes to collect cells. The collected cells were released with a 20 mM Tris-HCl (pH 7.4) buffer and then lyzed using a sonicator. The lyzed cells were centrifuged at 4° C. and 10,000 g for 10 minutes. The resultant was analyzed by BCA protein concentration quantification to measure the concentration of a coenzyme.
Enzymatic reaction conditions for AB hydrolysis by LAC4 were as follows. AB and lactose as a positive control were used as substrates in the experiment. Each substrate with a concentration of 2 g/L and a coenzyme at 0.5 g/L were reacted in a sodium acetate (pH 6.0) buffer at 30° C. […] This is due to a structural difference between AB and lactose. In this way, it is expected that AB brought into the cell by LAC12 will be hydrolyzed by LAC4.

For data set [2], the system named is D452-2-L12. Briefly: Intracellular AB uptake by LAC12 in minimal medium. The class given is cell-based, S. cerevisiae. As to conditions: minimal medium (Verduyn), without carbon source, FIG. 4A. As for the experimental part: To confirm the possibility that, […], AB is consumed together or AB is uptaken into the cell by producing energy from the carbon source, […], and then AB consumption experiments were performed for D452-2-L12 and parent D452-2 as a control. […]

The nature of data set [3]: Thermal stability (degree of denaturation over time). The class given is physicochemical. As to conditions: at 4, 25, 50, and 70° C., FIGS. 11A-11D. The method, then: To confirm whether L-AHGol and L-ABol, which were produced by fermentation and separated by size exclusion chromatography, are actually stable against heat, L-AHG and AB were experimentally compared. The experiment was performed by measuring the degree of denaturation of each substance over time at 4, 25, 50, and 70° C.

For data set [4], the target named is T2, AR expressed by a GRE3 gene derived from S. cerevisiae (Saccharomyces cerevisiae, UniProt P38715).
T2 construct: A target gene GRE3 was amplified from the genomic DNA by PCR; His6 (C); made in house
T2 sequence (P38715 1-327): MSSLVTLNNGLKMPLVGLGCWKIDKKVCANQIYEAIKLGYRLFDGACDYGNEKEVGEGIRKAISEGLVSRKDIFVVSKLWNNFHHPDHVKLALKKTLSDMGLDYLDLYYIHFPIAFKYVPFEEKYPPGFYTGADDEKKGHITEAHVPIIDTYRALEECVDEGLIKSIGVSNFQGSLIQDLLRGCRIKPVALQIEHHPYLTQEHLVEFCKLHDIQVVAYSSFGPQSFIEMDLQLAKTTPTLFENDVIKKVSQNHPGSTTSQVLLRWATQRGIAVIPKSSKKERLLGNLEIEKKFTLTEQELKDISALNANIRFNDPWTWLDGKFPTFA
Briefly: Reduction of L-AHG and AB by AR (NADPH decrease at 340 nm). It counts as biochemical. The conditions noted are these: substrate 2 mM, 1 mM NADPH, pH 6.0 sodium phosphate buffer, 30° C., FIG. 3B. The method, then: An enzymatic reaction was performed in a pH 6.0 sodium phosphate buffer at 30° C. 1 mM NADPH was used as a cofactor, and each substrate was allowed to react at 2 mM and a protein concentration of 9.36 nmol.

Data set [5] has as its system parent D452-2. The data set is described as follows: Cell growth inhibition according to AB concentration. As to conditions: 20 g/L glucose. It counts as cell-based, S. cerevisiae. The source says:
(§1) An experiment for confirming the growth inhibition effect is as follows. […] This is because an increase in AB concentration causes a glucose (carbon source) consumption rate to be decreased (FIG. 6B).

Data set [6] has as its system D452-2-L124. The description is as above. The class given is cell-based, S. cerevisiae.
Description: as §1

For data set [7], the system named is D452-2-L12. The description is as above. The class given is cell-based, S. cerevisiae. As to conditions: 20 g/L glucose.
Description: as §1

For data set [8], the system named is parent D452-2. The data set is described as follows: Intracellular AB uptake in minimal medium, control strain. As to conditions: minimal medium (Verduyn), without carbon source, FIG. 4D. It counts as cell-based, S. cerevisiae. As for the experimental part:
To confirm the possibility that, when a carbon source that may be consumed by a transporter is provided, AB is consumed together or AB is uptaken into the cell by producing energy from the carbon source, […], and then AB consumption experiments were performed for D452-2-L12 and parent D452-2 as a control. As a result, both when glucose (FIG. 4B) was provided and when galactose (FIG. 4C) was provided, only D452-2-L12 was able to consume AB and produced ABol. […] Therefore, D452-2-L12 was able to consume AB by LAC12.

For data set [9], the system named is Streptococcus mutans. As to conditions: reported; cited from earlier work.
The mark [10] stands for this setting: AB 0, 10, 20, 50 g/L, minimal medium, 30° C., FIG. 6A.

T1 sequence (P00723 whole entry): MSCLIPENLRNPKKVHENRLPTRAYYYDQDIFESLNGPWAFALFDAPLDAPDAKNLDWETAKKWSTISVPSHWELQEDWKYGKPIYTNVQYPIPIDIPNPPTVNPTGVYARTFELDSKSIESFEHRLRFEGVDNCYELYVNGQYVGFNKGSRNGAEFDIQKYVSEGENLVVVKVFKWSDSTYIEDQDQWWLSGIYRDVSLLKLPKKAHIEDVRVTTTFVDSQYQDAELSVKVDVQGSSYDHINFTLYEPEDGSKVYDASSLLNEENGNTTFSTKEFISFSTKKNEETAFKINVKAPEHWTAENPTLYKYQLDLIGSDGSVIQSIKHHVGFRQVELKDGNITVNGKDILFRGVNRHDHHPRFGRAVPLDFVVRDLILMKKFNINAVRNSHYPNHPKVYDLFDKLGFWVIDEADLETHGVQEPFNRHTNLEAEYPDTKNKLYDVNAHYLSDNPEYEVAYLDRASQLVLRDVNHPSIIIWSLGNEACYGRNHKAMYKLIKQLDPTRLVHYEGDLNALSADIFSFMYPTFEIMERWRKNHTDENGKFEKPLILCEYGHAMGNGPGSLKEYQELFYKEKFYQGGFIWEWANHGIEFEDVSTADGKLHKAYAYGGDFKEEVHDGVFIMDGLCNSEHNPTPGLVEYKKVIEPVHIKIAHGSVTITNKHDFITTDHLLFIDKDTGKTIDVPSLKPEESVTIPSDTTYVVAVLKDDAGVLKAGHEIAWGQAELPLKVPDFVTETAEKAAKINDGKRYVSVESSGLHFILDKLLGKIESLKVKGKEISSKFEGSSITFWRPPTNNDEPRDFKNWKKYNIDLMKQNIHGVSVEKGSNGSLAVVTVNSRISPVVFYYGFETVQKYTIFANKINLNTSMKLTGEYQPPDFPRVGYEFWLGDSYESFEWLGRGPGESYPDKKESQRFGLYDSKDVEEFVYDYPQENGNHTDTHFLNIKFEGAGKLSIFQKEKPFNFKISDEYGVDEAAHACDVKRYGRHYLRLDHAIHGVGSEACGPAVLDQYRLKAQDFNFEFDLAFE

Regarding `OC[C@H]1O[C@@H](O[C@H]2[C@H]3OC[C@@H]2OC(O)[C@H]3O)[C@H](O)[C@@H](O)[C@H]1O` (mixture of isomers) [AB, agarobiose], the AB hydrolysis result is given as “best hydrolyzed” in data set [1] (coenzyme from D452-2-L124 0.5 g/L, sodium acetate pH 6.0, 30° C., FIG. 5); “hardly hydrolyzed” in data set [1] (coenzymes from strains not expressing LAC4 (D452-2-L12 and parent D452-2), pH 6.0, 30° C.). In addition, in data set [1] (coenzyme 0.5 g/L, pH 6.0, 30° C.), the “reactivity to β-galactosidase compared with lactose” value was “less reactive”. The figures for the “AB consumption from medium” value in data set [2] and in data set [8] were “intracellularly consumed AB” and “did not decrease”, respectively. In addition, the “thermal stability, degree of denaturation over time” value (from here on “thermal stability … over time”) in data set [3] is “denatured over time at 50 °C or more”. Further, the “reactivity with AR” value in data set [4] was “converted into ABol by AR”. The “specific growth rate as AB concentration increased” value in data set [5] (setting [10]) is recorded as “not affected until the AB concentration was 20 g/L”; in data set [6] (AB 0, 10, 20, 50 g/L, 20 g/L glucose, minimal medium, 30° C., FIG. 6A) it was “most sharply decreased”; in data set [7] (setting [10]), “decreased as the AB concentration increased”. For the same compound, the growth result in data set [5] (AB concentration 50 g/L) is “slowly grew afterward”; in data set [6] (AB concentration 50 g/L, 20 g/L glucose) it was “did not grow”; in data set [7] (AB concentration 50 g/L) it was “did not grow”. Besides, the “glucose (carbon source) consumption rate on increase in AB concentration” value in data set [6] (each strain showed a tendency similar to the specific growth rate, FIG. 6B) is “decreased”.
On to `OC[C@@H](O)[C@@H]1OC[C@H](O)[C@H]1O[C@@H]1O[C@H](CO)[C@H](O)[C@H](O)[C@H]1O` [ABol, agarobititol], for which, in [3], the “thermal stability … over time” value was “very stable without being denatured even at 70 °C”.
On to `O=C[C@@H](O)[C@@H]1OC[C@H](O)[C@H]1O` [L-AHG, 3,6-anhydro-L-galactose], for which the antibacterial effect entry in data set [9] is recorded as “antibacterial effect”. Further, the “thermal stability … over time” value in data set [3] was “denatured over time at 50 °C or more”. Further, the “reactivity with AR” value in data set [4] is “then with L-AHG”.
With `OC[C@@H](O)[C@@H]1OC[C@H](O)[C@H]1O` [L-AHGol, 3,6-anhydro-L-galactitol], the “thermal stability … over time” value in data set [3] is “very stable without being denatured even at 70 °C”.
On to `O=C[C@H](O)[C@@H](O)[C@H](O)CO` [xylose], for which the “reactivity with AR” value in data set [4] is “reacted best”.
